According to ChEMBL document CHEMBL1201862, “PubChem BioAssay data set” (2004):
The source made the active and inactive calls.

Experiments:
Cytochrome P450 2C19 = Cytochrome P450 2C19 (Homo sapiens, UniProt P33261); experiment: Cytochrome panel assay with activity outcomes. Panel member name: p450-cyp2c19 Compounds with AC50 equal or less than 10 uM are considered active; type: functional
Cytochrome P450 3A4 = Cytochrome P450 3A4 (Homo sapiens, UniProt P08684);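 also: CYP3A4 tested as one member of a cytochrome P450 panel screen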
Cytochrome P450 2C9 = Cytochrome P450 2C9 (Homo sapiens, UniProt P11712)
[1] = biological target: T1, Heat shock factor protein 1 (Mus musculus, UniProt P38532); experiment: inhibition of MG132-induced HSE-luciferase signal, confirmation, cell-based, NIH3T3, luminescence, dose retest (AID 2382); type: functional;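 also: NIH3T3 fibroblasts with HSF1-driven luciferase reporter stressed by proteasome inhibitor MG132; luminescence from HSF1-driven luciferase expression after 8 hours of MG132 stress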
T1 sequence (P38532 whole entry): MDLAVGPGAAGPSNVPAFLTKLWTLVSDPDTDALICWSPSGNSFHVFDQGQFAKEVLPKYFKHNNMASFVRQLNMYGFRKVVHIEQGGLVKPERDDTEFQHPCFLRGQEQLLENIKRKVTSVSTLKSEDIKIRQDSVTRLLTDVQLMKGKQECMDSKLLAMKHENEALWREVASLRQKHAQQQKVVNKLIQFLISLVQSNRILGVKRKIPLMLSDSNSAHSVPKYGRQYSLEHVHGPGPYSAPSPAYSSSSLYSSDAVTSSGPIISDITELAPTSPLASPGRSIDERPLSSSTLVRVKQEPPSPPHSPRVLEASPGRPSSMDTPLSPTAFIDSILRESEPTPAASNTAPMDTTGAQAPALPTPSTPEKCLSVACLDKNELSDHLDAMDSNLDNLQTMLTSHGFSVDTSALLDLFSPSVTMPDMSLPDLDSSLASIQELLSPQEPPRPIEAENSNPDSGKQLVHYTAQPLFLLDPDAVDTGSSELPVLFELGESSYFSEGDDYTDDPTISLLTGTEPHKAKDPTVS

[2] = test system: Streptococcus sp. 'group A'; experiment: growth inhibition of control SK(-) GAS strain, dose response, counter-screen for streptokinase expression inhibitor project, luminescence, kanamycin, BacTiterGlo, confirmation (AID 1900); type: functional, organism-based
Streptokinase A = biological target: T2, Streptokinase A (Streptococcus pyogenes serotype M1, UniProt P10520); experiment: S. pyogenes streptokinase expression inhibitors, potency, dose response, plasminogen activation absorbance, OD405 (AID 1914); type: functional, Streptococcus pyogenes M1 GAS;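 also: secreted streptokinase activity via plasminogen activation per viability signal from cell pellet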
T2 sequence (P10520 whole entry): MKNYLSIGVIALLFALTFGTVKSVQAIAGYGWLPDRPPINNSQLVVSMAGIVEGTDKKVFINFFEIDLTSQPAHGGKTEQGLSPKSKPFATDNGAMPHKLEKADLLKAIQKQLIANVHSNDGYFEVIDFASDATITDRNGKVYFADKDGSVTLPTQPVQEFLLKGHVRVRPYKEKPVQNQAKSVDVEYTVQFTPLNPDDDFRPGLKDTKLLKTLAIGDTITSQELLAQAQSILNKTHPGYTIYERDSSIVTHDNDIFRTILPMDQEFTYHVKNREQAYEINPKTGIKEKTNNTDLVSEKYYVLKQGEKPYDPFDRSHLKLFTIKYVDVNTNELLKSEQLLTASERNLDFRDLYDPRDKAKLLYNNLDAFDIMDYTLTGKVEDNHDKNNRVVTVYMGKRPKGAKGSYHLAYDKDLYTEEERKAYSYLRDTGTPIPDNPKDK

Streptococcus = experiment: Group A Streptococcus viability loss, dose response, counter-screen for streptokinase expression inhibitor project, luminescence, BacTiterGlo (AID 1915); type: functional, organism-based;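 also: potency for reduction of bacterial viability or growth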
Cytochrome P450 1A2 = biological target: T3, Cytochrome P450 1A2 (Homo sapiens, UniProt P05177);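 also: PubChem cytochrome P450 panel assay, CYP1A2 panel member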
T3 sequence (P05177 whole entry): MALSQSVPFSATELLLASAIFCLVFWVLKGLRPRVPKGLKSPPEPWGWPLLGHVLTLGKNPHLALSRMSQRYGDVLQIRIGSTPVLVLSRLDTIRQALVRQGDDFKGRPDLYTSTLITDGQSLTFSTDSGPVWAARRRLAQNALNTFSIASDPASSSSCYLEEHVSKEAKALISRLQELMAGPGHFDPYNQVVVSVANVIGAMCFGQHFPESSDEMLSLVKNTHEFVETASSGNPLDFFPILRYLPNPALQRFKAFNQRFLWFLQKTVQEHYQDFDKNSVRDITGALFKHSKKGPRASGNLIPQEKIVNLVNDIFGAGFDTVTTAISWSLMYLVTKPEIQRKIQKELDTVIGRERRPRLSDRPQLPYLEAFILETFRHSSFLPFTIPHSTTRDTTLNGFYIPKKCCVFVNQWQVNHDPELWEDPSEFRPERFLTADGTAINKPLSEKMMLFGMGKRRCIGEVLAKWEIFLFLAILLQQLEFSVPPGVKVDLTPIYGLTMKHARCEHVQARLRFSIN

[3] = Luminescence Cell-Based Dose Confirmation HTS to Identify Activators of 5'UTR Stem-Loop Driven Alpha-Synuclein mRNA Translation in H4 Neuroglioblastoma Cells. [Related pubchem assays: 1829 (Project Summary), 1814 (Primary HTS)]; type: functional
[4] = Luminescence Cell-Based Dose Response HTS to Identify Activators of Luciferase Translation or Activity in H4 […] Cells. [Related pubchem assays: 1829 (Project Summary), 1814 (Primary HTS)]; type: functional
H4 = experiment: Luminescence Cell-Based Dose Response HTS to Identify Activators of 5'UTR Stem-Loop Driven Prion Protein mRNA Translation in H4 Neuroglioblastoma Cells. [Related pubchem assays: 1829 (Project Summary), 1814 (Primary HTS)]; type: functional; details: Homo sapiens
Cytochrome P450 2D6 = Cytochrome P450 2D6 (Homo sapiens, UniProt P10635);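 also: CYP2D6 member of a cytochrome P450 panel assay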
Cytochrome P450 2D6, sequence (P10635 whole entry): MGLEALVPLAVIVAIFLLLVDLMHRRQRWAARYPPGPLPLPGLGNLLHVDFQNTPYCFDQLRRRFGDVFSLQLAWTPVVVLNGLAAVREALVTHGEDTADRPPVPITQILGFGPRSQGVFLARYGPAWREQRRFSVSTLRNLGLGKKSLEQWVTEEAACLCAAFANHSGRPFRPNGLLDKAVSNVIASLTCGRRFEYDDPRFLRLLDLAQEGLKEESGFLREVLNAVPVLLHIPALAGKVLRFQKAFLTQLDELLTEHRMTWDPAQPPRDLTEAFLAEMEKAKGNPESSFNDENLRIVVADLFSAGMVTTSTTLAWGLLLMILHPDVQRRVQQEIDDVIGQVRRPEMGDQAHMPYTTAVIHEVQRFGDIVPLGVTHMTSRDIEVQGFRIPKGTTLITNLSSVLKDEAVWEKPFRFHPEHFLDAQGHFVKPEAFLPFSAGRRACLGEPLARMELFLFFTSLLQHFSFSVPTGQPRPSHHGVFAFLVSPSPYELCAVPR

Cytochrome P450 2C9, sequence (P11712 whole entry): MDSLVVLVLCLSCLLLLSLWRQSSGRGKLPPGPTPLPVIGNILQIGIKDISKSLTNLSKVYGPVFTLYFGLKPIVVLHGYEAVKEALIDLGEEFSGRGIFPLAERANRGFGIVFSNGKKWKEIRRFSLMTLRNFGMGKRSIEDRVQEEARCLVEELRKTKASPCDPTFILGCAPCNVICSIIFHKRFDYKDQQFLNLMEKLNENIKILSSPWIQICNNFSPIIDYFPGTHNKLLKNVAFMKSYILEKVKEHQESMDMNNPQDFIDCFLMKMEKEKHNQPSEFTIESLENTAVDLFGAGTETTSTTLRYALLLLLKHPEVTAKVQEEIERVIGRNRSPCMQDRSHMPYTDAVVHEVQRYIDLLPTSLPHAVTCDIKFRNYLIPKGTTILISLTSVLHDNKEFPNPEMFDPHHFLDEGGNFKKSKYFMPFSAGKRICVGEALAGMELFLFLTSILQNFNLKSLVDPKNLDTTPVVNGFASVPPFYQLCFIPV
Cytochrome P450 2C19, sequence (P33261 whole entry): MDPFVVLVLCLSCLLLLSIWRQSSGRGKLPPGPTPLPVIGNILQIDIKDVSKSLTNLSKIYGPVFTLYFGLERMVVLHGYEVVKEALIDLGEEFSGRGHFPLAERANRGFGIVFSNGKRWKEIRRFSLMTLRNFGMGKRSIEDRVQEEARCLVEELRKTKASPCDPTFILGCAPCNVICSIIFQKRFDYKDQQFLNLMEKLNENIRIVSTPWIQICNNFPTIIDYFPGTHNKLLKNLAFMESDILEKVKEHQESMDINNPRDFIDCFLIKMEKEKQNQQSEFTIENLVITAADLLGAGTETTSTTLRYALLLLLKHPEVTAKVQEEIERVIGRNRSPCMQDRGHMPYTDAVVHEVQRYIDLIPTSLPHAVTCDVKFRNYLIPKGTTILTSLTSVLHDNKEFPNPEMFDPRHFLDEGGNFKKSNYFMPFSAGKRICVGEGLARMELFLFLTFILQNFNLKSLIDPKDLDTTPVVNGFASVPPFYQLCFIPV
Cytochrome P450 3A4, sequence (P08684 whole entry): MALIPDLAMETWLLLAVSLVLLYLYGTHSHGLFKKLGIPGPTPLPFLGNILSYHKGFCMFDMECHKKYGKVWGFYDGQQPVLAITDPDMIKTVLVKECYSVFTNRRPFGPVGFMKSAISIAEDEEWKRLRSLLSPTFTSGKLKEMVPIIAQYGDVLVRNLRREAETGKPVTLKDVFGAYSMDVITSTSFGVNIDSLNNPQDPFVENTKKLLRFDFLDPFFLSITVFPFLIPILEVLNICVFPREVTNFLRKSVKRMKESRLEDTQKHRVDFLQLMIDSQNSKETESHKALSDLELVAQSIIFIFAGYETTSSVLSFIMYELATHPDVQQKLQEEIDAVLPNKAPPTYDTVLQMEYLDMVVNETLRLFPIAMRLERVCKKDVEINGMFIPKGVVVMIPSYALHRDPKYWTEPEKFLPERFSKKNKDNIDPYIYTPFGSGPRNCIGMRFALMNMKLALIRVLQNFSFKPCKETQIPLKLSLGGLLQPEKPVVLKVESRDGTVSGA

SMILES: COc1ccc(N2CC(C(=O)OCC(=O)c3cccc(OC)c3)CC2=O)cc1 (centres undefined)
- AC50 (Cytochrome P450 2C19; read-out: AC50): 8.91 µM (inconclusive)

SMILES: CCSc1ccc2c(c1)N(CCCN1CCN(C)CC1)c1ccccc1S2
- AC50 (Cytochrome P450 2C19; read-out: AC50): 3.16 µM (inconclusive)
- AC50 (Cytochrome P450 3A4): 10 µM (inconclusive)

SMILES: Cc1ncc(CSC(=N)N)n1Cc1ccccc1
- AC50 (Cytochrome P450 2C19; read-out: AC50): 7.94 µM (inconclusive)

SMILES: CCOC(=O)Nc1nc(-c2ccccc2)c(C)s1
- AC50 (Cytochrome P450 2C19; read-out: AC50): 3.98 µM (inconclusive)
- AC50 (Cytochrome P450 2C9): 7.94 µM (inconclusive)

SMILES: CSc1cccc(NC(=S)N2CCC(N(C)C3CCCC3)CC2)c1
- EC50 [1]: > 195 µM (not active)

SMILES: COc1ccc(C(C)N=C(S)NC2CCCCC2)cc1OC (centres undefined)
- EC50 [1]: > 195 µM (not active)

SMILES: FC(F)(F)c1cc(-c2ccccc2)nc(N2CCCCCC2)n1
- EC50 [2]: 4.27 µM (active)
- EC50 (Streptokinase A): 5.14 µM (active)
- EC50 (Streptococcus): 14.3 µM (active)

SMILES: COc1[nH]nc2nncnc12
- AC50 (Cytochrome P450 2C19; read-out: AC50): 15.8 µM (inconclusive)
- AC50 (Cytochrome P450 1A2): 6.31 µM (inconclusive)

SMILES: CCC1C(=O)n2nc(-c3ccccc3)cc2N=C1C (centres undefined)
- EC50 [3]: 25.7 µM (active)
- EC50 [4]: 6.09 µM (active)

SMILES: COc1ccc(N2CCN(C(=O)Cc3csc(NC(=O)Nc4ccccc4OC)n3)CC2)cc1
- EC50 [2]: > 150 µM (not active)
- EC50 (Streptokinase A): > 150 µM (not active)
- EC50 (Streptococcus): 32.7 µM (active)

SMILES: O=C(Nc1nc(-c2ccccn2)cs1)C12CC3CC(CC(O)(C3)C1)C2
- EC50 [2]: > 150 µM (not active)
- EC50 (Streptokinase A): > 150 µM (not active)
- EC50 (Streptococcus): > 150 µM (not active)

SMILES: CC(=O)c1cc(C)ccc1OC(=O)CCN1C(=O)C2C3c4ccccc4C(c4ccccc43)C2C1=O (centres undefined)
- AC50 (Cytochrome P450 2C19; read-out: AC50): 10 µM (inconclusive)
- AC50 (Cytochrome P450 3A4): 31.6 µM (inconclusive)

SMILES: Cc1cc(O)[nH]c2nnc(-c3ccccc3)c1-2
- EC50 [3]: 8.88 µM (active)
- EC50 [4]: 10 µM (active)
- EC50 (H4): 15.1 µM (active)

SMILES: O=C(NC1CCCCC1)C(c1ccco1)N(C(=O)c1csnn1)c1ccc(Cl)cc1 (centres undefined)
- EC50 [1]: > 195 µM (not active)

SMILES: Cc1ccc(C(=O)N(CN2CCCC2=O)c2ccccc2)cc1C
- AC50 (Cytochrome P450 1A2): 5.01 µM (inconclusive)
- AC50 (Cytochrome P450 2C9): 0.00562 µM (inconclusive)

SMILES: COc1cc(Cn2cnnn2)ccc1O
- AC50 (Cytochrome P450 1A2): 39.8 µM (inconclusive)
- AC50 (Cytochrome P450 2C9): 0.178 µM (inconclusive)

SMILES: COc1cc2c(cc1OC)/C(=C/C(=O)N1CCOCC1)NC(C)(C)C2
- AC50 (Cytochrome P450 2C19; read-out: AC50): 22.4 µM (inconclusive)
- AC50 (Cytochrome P450 1A2): 15.8 µM (inconclusive)
- AC50 (Cytochrome P450 2C9): 3.98 µM (inconclusive)

SMILES: COc1cc(NC(=O)n2ncc3cc(Cl)ccc32)cc(OC)c1
- EC50 [4]: 17.4 µM (active)
- EC50 (H4): 12.5 µM (active)

SMILES: COc1ccc(C(=O)N2CCCC(Nc3ccc(C)c(C)c3)C2)cc1F (centres undefined)
- EC50 [2]: > 150 µM (not active)
- EC50 (Streptokinase A): > 150 µM (not active)
- EC50 (Streptococcus): > 150 µM (not active)

SMILES: COc1ccccc1CNc1ccnc(-c2ccc(C(=O)N(C)C)cc2)n1
- AC50 (Cytochrome P450 2C19; read-out: AC50): 39.8 µM (inconclusive)
- AC50 (Cytochrome P450 2D6): 39.8 µM (inconclusive)

SMILES: CCCC(=O)Nc1c(C)n[nH]c1C
- AC50 (Cytochrome P450 2C19; read-out: AC50): 3.98 µM (inconclusive)

SMILES: COC(=O)CCCC1=CC2=C(c3ccccc3)C(=O)C(C)(OC(=O)C3CCCC3)C(=O)C2=CN1c1ccc(OC)cc1 (centres undefined)
- EC50 [1]: > 195 µM (not active)

SMILES: Cc1ccc(OCC(=O)NNC(=O)CCC(=O)Nc2ccc(C)cc2C)cc1
- AC50 (Cytochrome P450 2C19): inconclusive
